The text below walks through data of patent publication US8846746B2, “Pyrazole compound and pharmaceutical use thereof” (Japan Tobacco Inc., priority 2011, dated 2014).

For the first assay, the target named is human SGLT1 (Homo sapiens (Human), UniProt P13866). The assay can be described thus: SGLT1 inhibitory activity: 14C-AMG uptake into CHO-K1 cell line stably expressing human SGLT1. It is filed as cell-based. The note with it: 14C-AMG uptake, CHO-K1 cells expressing human SGLT1. The gist of the method: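 Human SGLT1 was stably expressed in CHO-K1 cells. Cells were first held 20 min in sodium-free buffer, then exposed to compound in Na(+)/BSA buffer with tracer and AMG (2 mM in the added solution).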
Sequence of human SGLT1 (P13866 whole entry): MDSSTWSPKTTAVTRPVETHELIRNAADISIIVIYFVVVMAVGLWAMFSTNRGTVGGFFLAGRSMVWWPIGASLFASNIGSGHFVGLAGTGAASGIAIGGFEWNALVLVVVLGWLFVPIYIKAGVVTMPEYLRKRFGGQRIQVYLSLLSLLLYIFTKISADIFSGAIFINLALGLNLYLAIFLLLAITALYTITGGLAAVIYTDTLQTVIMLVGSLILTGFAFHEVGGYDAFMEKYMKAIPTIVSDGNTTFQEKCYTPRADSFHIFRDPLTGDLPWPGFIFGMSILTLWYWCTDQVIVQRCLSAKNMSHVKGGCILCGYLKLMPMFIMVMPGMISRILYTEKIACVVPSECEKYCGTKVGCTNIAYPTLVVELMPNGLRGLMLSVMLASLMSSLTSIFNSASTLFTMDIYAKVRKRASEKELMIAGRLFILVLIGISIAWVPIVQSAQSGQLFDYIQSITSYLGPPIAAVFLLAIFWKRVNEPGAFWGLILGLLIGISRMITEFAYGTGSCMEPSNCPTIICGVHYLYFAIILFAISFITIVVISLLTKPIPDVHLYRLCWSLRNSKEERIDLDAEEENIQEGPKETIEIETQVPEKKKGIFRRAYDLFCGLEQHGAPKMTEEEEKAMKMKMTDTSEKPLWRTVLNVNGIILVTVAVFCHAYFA
`CCCc1cccc(-c2cc(NC(=O)[C@H]3CNC(=O)C3)nn2CCC(C)(C)C)c1` [Example 134] gave an IC50 of 6.8 nM.
`CCCc1cccc(-c2cc(NC(=O)[C@H]3CNC(=O)C3)nn2CCC(C)C)c1` [Example 135] registered an IC50 of 11 nM.
For the molecule `CCCc1cccc(-c2cc(NC(=O)[C@H]3CNC(=O)C3)nn2C2CCOCC2)c1` [Example 136], the IC50 came out at 28 nM.
Take `CCCc1cccc(-c2cc(NC(=O)[C@H]3CNC(=O)C3)nn2CCC2CCCC2)c1` [Example 137]: it took 14 nM to reach half-maximal inhibition (IC50).
On the same count and under the same terms, the figure for `CC(C)C(F)(F)c1cccc(-c2cc(NC(=O)[C@H]3CNC(=O)C3)nn2-c2ccccc2)c1` [Example 138] is 1.5 nM.
Take `CCC(F)(F)c1cccc(-c2cc(NC(=O)[C@H]3CNC(=O)C3)nn2-c2cccc(Cl)c2)c1` [Example 139]: half-maximal inhibition (IC50) was put at 1.7 nM. This IC50 and that of the molecule before are within 1.5-fold of each other.
`CCC(F)(F)c1cccc(-c2cc(NC(=O)[C@H]3CNC(=O)C3)nn2-c2ccccc2Cl)c1` [Example 140] gave an IC50 of 1.1 nM.
`CCC(F)(F)c1cccc(-c2cc(NC(=O)[C@H]3CNC(=O)C3)nn2-c2ccc(Cl)cc2)c1` [Example 141] had an IC50 of 5.5 nM.
Take `CCC(F)(F)c1cccc(-c2cc(NC(=O)[C@H]3CNC(=O)C3)nn2CCC(C)C)c1` [Example 142]: the IC50 stood at 9.2 nM.
Consider `CCC(F)(F)c1cccc(-c2cc(NC(=O)[C@H]3CNC(=O)C3)nn2CCC(C)(C)C)c1` [Example 143], for which half-maximal inhibition (IC50) required 6.5 nM.
Take `CCC(F)(F)c1cccc(-c2cc(NC(=O)[C@H]3CNC(=O)C3)nn2-c2ccccc2C)c1` [Example 144]: the IC50 amounted to 1.3 nM.
`O=C1C[C@@H](C(=O)Nc2cc(-c3cccc(OC(F)(F)F)c3)n(-c3ccc(F)cc3)n2)CN1` [Example 147] came in with an IC50 of 15 nM.
With `O=C1C[C@@H](C(=O)Nc2cc(-c3cccc(OCC(F)(F)F)c3)n(-c3ccccc3)n2)CN1` [Example 148], the IC50 is 10 nM.
As for `O=C1C[C@@H](C(=O)Nc2cc(-c3cccc(OCCC(F)(F)F)c3)n(-c3ccccc3)n2)CN1` [Example 149], half-maximal inhibition (IC50) was put at 9.5 nM.
The molecule `C[C@H]1C(=O)NC[C@@H]1C(=O)Nc1cc(-c2cccc(OC(F)(F)F)c2)n(-c2ccc(Cl)cc2)n1` [Example 152] gave an IC50 of 9.3 nM.
Still for that read-out and setting: the same measure for `CC(C)(C)c1cccc(-c2cc(NC(=O)[C@H]3CNC(=O)C3)nn2-c2ccc(Cl)cc2)c1` [Example 153]: 3.3 nM; for `CCC(F)(F)c1cccc(-c2cc(NC(=O)[C@H]3CNC(=O)[C@@H]3C)nn2-c2ccccc2)c1` [Example 154]: 1.1 nM.
`CCC(F)(F)c1cccc(-c2cc(NC(=O)[C@H]3CNC(=O)C3)nn2C2CCOCC2)c1` [Example 155] showed an IC50 of 19 nM.
`Cc1ccccc1-n1nc(NC(=O)[C@H]2CNC(=O)C2)cc1-c1cccc(OC(F)(F)F)c1` [Example 156] yielded an IC50 of 2.7 nM.
`O=C1C[C@@H](C(=O)Nc2cc(-c3cccc(OC(F)(F)F)c3)n(-c3cccc(F)c3)n2)CN1` [Example 157] showed an IC50 of 13 nM.
Same read-out and setting: the same measure for `CC(C)C(F)(F)c1cccc(-c2cc(NC(=O)[C@H]3CNC(=O)C3)nn2-c2ccc(Cl)cc2)c1` [Example 158]: 3.4 nM; for `O=C1C[C@@H](C(=O)Nc2cc(-c3cccc(OCC(F)(F)F)c3)n(-c3ccc(Cl)cc3)n2)CN1` [Example 159]: 17 nM; for `O=C1C[C@@H](C(=O)Nc2cc(-c3cccc(OCCC(F)(F)F)c3)n(-c3ccc(Cl)cc3)n2)CN1` [Example 160]: 11 nM.
With `CC(F)(F)c1cccc(-c2cc(NC(=O)[C@H]3CNC(=O)C3)nn2-c2ccccc2)c1` [Example 161], 22 nM corresponded to half-maximal inhibition (IC50). Compared with the last molecule, the IC50 is about 2-fold higher.
Same read-out and setting: the figure for `CC(F)(F)c1cccc(-c2cc(NC(=O)[C@H]3CNC(=O)C3)nn2-c2ccc(Cl)cc2)c1` [Example 162] is 19 nM; for `COc1cccc(-n2nc(NC(=O)[C@H]3CNC(=O)C3)cc2-c2cccc(OC(F)(F)F)c2)c1` [Example 163] it is 7.1 nM.
Molecule `CCC(F)(F)c1cccc(-c2cc(NC(=O)[C@H]3CNC(=O)C3)nn2-c2cccc(OC)c2)c1` [Example 164] had an IC50 of 2.6 nM.
`C[C@H]1C(=O)NC[C@@H]1C(=O)Nc1cc(-c2cccc(OC(F)(F)F)c2)n(-c2ccccc2F)n1` [Example 166] returned an IC50 of 2.9 nM.
For the molecule `CCC(F)(F)c1cccc(-c2cc(NC(=O)[C@H]3CNC(=O)[C@@H]3C)nn2-c2cccc(F)c2)c1` [Example 170], the IC50 turned out to be 3 nM.
The molecule `CCC(F)(F)c1cccc(-c2cc(NC(=O)[C@H]3CNC(=O)[C@@H]3C)nn2-c2ccc(F)cc2)c1` [Example 172] yielded a half-inhibitory concentration (IC50) of 5.5 nM.
Regarding `CCC(F)(F)c1cccc(-c2cc(NC(=O)[C@H]3CNC(=O)C3)nn2-c2ccc(F)cc2)c1` [Example 173], inhibition was half-maximal at 13 nM (IC50). Against the preceding molecule, the IC50 is about 2.4-fold higher.
Consider `CCC(F)(F)c1cccc(-c2cc(NC(=O)[C@H]3CNC(=O)[C@@H]3C)nn2CCOC(C)C)c1` [Example 176], for which the IC50 was 55 nM.
For the molecule `CC(C)(C)c1cccc(-c2cc(NC(=O)[C@H]3CNC(=O)C3)nn2C2CCOCC2)c1` [Example 177], the IC50 was 56 nM. This IC50 and that of the molecule before are within 1.5-fold of each other.
For `C[C@H]1C(=O)NC[C@@H]1C(=O)Nc1cc(-c2cccc(C(C)(C)C)c2)n(C2CCOCC2)n1` [Example 178], the IC50 is 14 nM.
`CCC(F)(F)c1cccc(-c2cc(NC(=O)[C@H]3CNC(=O)[C@@H]3C)nn2C2CCOCC2)c1` [Example 179] registered an IC50 of 19 nM.
On the same count and under the same terms, the figure for `CCC(F)(F)c1cccc(-c2cc(NC(=O)[C@H]3CNC(=O)C3)nn2-c2cccc(F)c2)c1` [Example 181] is 4.3 nM.
`CCC(F)(F)c1cccc(-c2cc(NC(=O)[C@H]3CNC(=O)C3)nn2-c2ccccc2F)c1` [Example 182] registered an IC50 of 3.8 nM.
Take `O=C1C[C@@H](C(=O)Nc2cc(-c3cccc(OC(F)(F)F)c3)n(-c3ccc(F)cc3F)n2)CN1` [Example 183]: inhibition was half-maximal at 20100 nM (IC50).
Regarding `O=C1C[C@@H](C(=O)Nc2cc(-c3cccc(OC(F)(F)F)c3)n(C3CCOCC3)n2)CN1` [Example 187], the IC50 turned out to be 42 nM.
For the molecule `C[C@H]1C(=O)NC[C@@H]1C(=O)Nc1cc(-c2cccc(OC(F)(F)F)c2)n(C2CCOCC2)n1` [Example 188], the IC50 is 23 nM.
Regarding `O=C1C[C@@H](C(=O)Nc2cc(-c3cccc(OC(F)(F)F)c3)n(CCC(F)(F)F)n2)CN1` [Example 190], the concentration for half-maximal inhibition (IC50) stood at 130 nM. This IC50 lies about 5.7-fold higher than the previous one.

Still in this assay, the particulars now being: CHO-K1, at 0.03 uM.
As to `C[C@H]1C(=O)NC[C@@H]1C(=O)Nc1cc(-c2cccc(OC(F)(F)F)c2)n(-c2ccc(F)cc2F)n1` [Example 184], the inhibition at 0.03 µM is 3%.

The assay is the same for the next values; noted with them: CHO-K1, at 0.1 uM.
Regarding `CCCc1cc(CO)cc(-c2cc(NC(=O)[C@H]3CNC(=O)C3)nn2-c2ccccc2)c1` [Example 146], the inhibition at 0.1 µM stood at 38%.
Take `CCC(F)(F)c1cccc(-c2cc(NC(=O)[C@H]3CNC(=O)C3)nn2CCN2CCCC2)c1` [Example 169]: the inhibition at 0.1 µM worked out at 4%.
As for `CCC(F)(F)c1cccc(-c2cc(NC(=O)[C@H]3CNC(=O)C3)nn2CCOC(C)C)c1` [Example 175], the inhibition at 0.1 µM was determined as 40%.

Still in this assay, the particulars now being: CHO-K1, at 0.3 uM.
With `C[C@H]1C(=O)NC[C@@H]1C(=O)Nc1cc(-c2cccc(OC(F)(F)F)c2)n(-c2ccc(Cl)c(F)c2)n1` [Example 180], the inhibition at 0.3 µM is -10%.

The assay is the same for the next values; noted with them: CHO-K1, at 1 uM.
With `CCCc1cc(C(=O)O)cc(-c2cc(NC(=O)[C@H]3CNC(=O)C3)nn2-c2ccccc2)c1` [Example 145], the inhibition at 1 µM amounted to 43%.
Turning to `O=C1C[C@@H](C(=O)Nc2cc(-c3cccc(OC(F)(F)F)c3)n(-c3ccc(Cl)c(F)c3)n2)CN1` [Example 174], the inhibition at 1 µM is 9%.
